Data as given in PubChem BioAssay (NCI).
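Method: 48-hour compound exposure of cells in 96-well plates, five concentrations, linear interpolation of endpoints. GI50 marks 50% less growth. TGI: concentration producing complete growth inhibition.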

Columns and labels:
Experiment in all cases: NCI anticancer screen, dose series, 48 h
[1] = system: RXF 393 renal
[2] = system: SR leukemia
[3] = system: MDA-MB-435
[4] = system: UO-31 renal
[5] = system: NCI-H226 lung
[6] = system: A549 NSCLC
[7] = system: SF-268 CNS
[8] = system: EKVX NSCLC
[9] = system: HOP-62 NSCLC
[10] = system: NCI-H460 lung
[11] = system: K-562 leukemia
[12] = system: OVCAR-3 ovarian
[13] = system: T-47D breast
[14] = system: SW-620 colon
[15] = system: HCT-15 colon
[16] = system: KM12 colon
[17] = system: UACC-257 melanoma
[18] = system: MDA-MB-231 breast
[19] = system: CCRF-CEM leukemia
[20] = system: MALME-3M melanoma
[21] = system: TK-10 renal
[22] = system: MCF7 breast
[23] = system: SK-MEL-2 melanoma
[24] = system: M14 melanoma
[25] = system: SNB-19 CNS
[26] = system: OVCAR-4 ovarian
[27] = system: MOLT-4 leukemia
[28] = system: CAKI-1 renal
[29] = system: NCI-H23 lung
[30] = system: OVCAR-8 ovarian
[31] = system: SN12C renal
[32] = system: SK-OV-3 ovarian
[33] = system: SF-539 CNS
[34] = system: HL-60(TB) leukemia
[35] = system: 786-0 renal
[36] = system: A498 renal
[37] = system: IGROV1 ovarian
[38] = system: NCI-H522 lung
[39] = system: HOP-92 NSCLC
[40] = system: LOX IMVI melanoma
[41] = system: SF-295 CNS
[42] = system: HCT-116 colon
[43] = system: NCI/ADR-RES ovarian
[44] = system: SK-MEL-5 melanoma
[45] = system: RPMI-8226 leukemia
[46] = system: PC-3 prostate
[47] = system: UACC-62 melanoma
[48] = system: U251 CNS
[49] = system: COLO 205 colon
[50] = system: DU-145 prostate
[51] = system: HS 578T breast
[52] = system: SK-MEL-28 melanoma
[53] = system: SNB-75 CNS
[54] = system: ACHN renal
[55] = system: OVCAR-5 ovarian

N#CC(C#N)=C1Nc2ccccc2S1
GI50 [1]: 36 µM | TGI [1]: > 100 µM | GI50 [2]: 25.6 µM | TGI [2]: 51.9 µM | GI50 [3]: 30.3 µM | TGI [3]: > 100 µM | GI50 [4]: 39.1 µM | TGI [4]: > 100 µM | GI50 [5]: 27.3 µM | TGI [5]: 76.8 µM | GI50 [6]: 23.5 µM | TGI [6]: > 100 µM | GI50 [7]: 27.8 µM | TGI [7]: > 100 µM | GI50 [8]: 34.7 µM | TGI [8]: > 100 µM | GI50 [9]: 40.3 µM | TGI [9]: > 100 µM | GI50 [10]: 32 µM | TGI [10]: > 100 µM | GI50 [11]: 38.3 µM | TGI [11]: > 100 µM | GI50 [12]: 20.3 µM | TGI [12]: 62.9 µM | GI50 [13]: 35.8 µM | TGI [13]: > 100 µM | GI50 [14]: 40.1 µM | TGI [14]: > 100 µM | GI50 [15]: 48 µM | TGI [15]: > 100 µM | GI50 [16]: 34.8 µM | TGI [16]: > 100 µM | GI50 [17]: 21.4 µM | TGI [17]: 68.7 µM | GI50 [18]: 43.4 µM | TGI [18]: > 100 µM | GI50 [19]: 45.5 µM | TGI [19]: > 100 µM | GI50 [20]: 7.62 µM | TGI [20]: 34.5 µM | GI50 [21]: 29.2 µM | TGI [21]: 82.1 µM | GI50 [22]: 33.5 µM | TGI [22]: > 100 µM | GI50 [23]: 28.5 µM | TGI [23]: 56.2 µM | GI50 [24]: 22.6 µM | TGI [24]: > 100 µM | GI50 [25]: 38.2 µM | TGI [25]: > 100 µM | GI50 [26]: 87 µM | TGI [26]: > 100 µM | GI50 [27]: 33.3 µM | TGI [27]: > 100 µM | GI50 [28]: 24.5 µM | TGI [28]: 70.9 µM | GI50 [29]: 22.4 µM | TGI [29]: 45.9 µM | GI50 [30]: 35.4 µM | TGI [30]: > 100 µM | GI50 [31]: 38.2 µM | TGI [31]: > 100 µM | GI50 [32]: 31.5 µM | TGI [32]: > 100 µM | GI50 [33]: 36.3 µM | TGI [33]: 93.7 µM | GI50 [34]: 30.1 µM | TGI [34]: > 100 µM | GI50 [35]: 41 µM | TGI [35]: > 100 µM | GI50 [36]: 26.6 µM | TGI [36]: 55.5 µM | GI50 [37]: 35.9 µM | TGI [37]: > 100 µM | GI50 [38]: 32.4 µM | TGI [38]: > 100 µM | GI50 [39]: 2.59 µM | TGI [39]: 18.1 µM | GI50 [40]: 42.5 µM | TGI [40]: > 100 µM | GI50 [41]: 24.3 µM | TGI [41]: 69 µM | GI50 [42]: 37.7 µM | TGI [42]: > 100 µM | GI50 [43]: 23.8 µM | TGI [43]: 69.5 µM | GI50 [44]: 22.7 µM | TGI [44]: 44.8 µM | GI50 [45]: 33.6 µM | TGI [45]: 79.7 µM | GI50 [46]: 40.1 µM | TGI [46]: > 100 µM | GI50 [47]: 37.2 µM | TGI [47]: > 100 µM | GI50 [48]: 43.6 µM | TGI [48]: > 100 µM | GI50 [49]: 29.5 µM | TGI [49]: > 100 µM | GI50 [50]: 49.2 µM | TGI [50]: > 100 µM | GI50 [51]: 34.1 µM | TGI [51]: 85.9 µM | GI50 [52]: 27.7 µM | TGI [52]: 77.4 µM

Cc1ccc(/C(Cl)=C/C=C(C#N)C#N)cc1
TGI [1]: 7.66 µM | TGI [2]: 7.47 µM | TGI [3]: 6.94 µM | TGI [53]: 37.6 µM | TGI [4]: > 100 µM | TGI [54]: 5.29 µM | TGI [5]: 17.2 µM | TGI [6]: 56 µM | TGI [7]: 21.3 µM | TGI [8]: 27.5 µM | TGI [9]: 3.88 µM | TGI [10]: > 100 µM | TGI [11]: 19.4 µM | TGI [12]: 3.91 µM | TGI [13]: > 100 µM | TGI [14]: 3.71 µM | TGI [15]: 4.79 µM | TGI [16]: 21 µM | TGI [17]: 6.31 µM | TGI [18]: 6.33 µM | TGI [19]: > 100 µM | TGI [20]: 16.1 µM | TGI [21]: 13.2 µM | TGI [22]: > 100 µM | TGI [23]: > 100 µM | TGI [24]: 6.37 µM | TGI [25]: 24 µM | TGI [26]: 8.74 µM | TGI [27]: > 100 µM | TGI [28]: 14.4 µM | TGI [29]: 3.36 µM | TGI [30]: 8.67 µM | TGI [31]: 17.4 µM | TGI [32]: 26.1 µM | TGI [33]: 6.37 µM | TGI [34]: 36.9 µM | TGI [55]: 7.48 µM | TGI [35]: 3.77 µM | TGI [37]: 16.2 µM | TGI [38]: 5.17 µM | TGI [40]: 3.82 µM | TGI [41]: 26.9 µM | TGI [43]: 4.48 µM | TGI [44]: 4.01 µM | TGI [46]: > 100 µM | TGI [47]: 15.7 µM | TGI [48]: 18.4 µM | TGI [49]: 12.1 µM | TGI [50]: 23.9 µM | TGI [51]: 5.58 µM | TGI [52]: 5.12 µM
